# Active and inactive are the calls of the source. No cut-off for these calls is given here.
# Legend:
# Staphylococcus aureus = assay: Antimicrobial activity against Staphylococcus aureus ATCC 6538; type: functional
# Bacillus subtilis = assay: Antimicrobial activity against Bacillus subtilis ATCC 6633; type: functional
# Aspergillus niger = assay: Antimicrobial activity against Aspergillus niger; type: functional, organism-based
Structure (SMILES),MIC (Staphylococcus aureus) [µg/mL],MIC (Bacillus subtilis) [µg/mL],Activity (Aspergillus niger),Activity (Staphylococcus aureus),Activity (Bacillus subtilis)
Cn1c(/C=C\CNC(=O)c2cc(Br)c[nH]2)cnc1N [KERAMADINE],35,40,–,–,–
C[C@]1(C[C@H](NC(=O)c2cc(Br)c[nH]2)C(=O)O)CNC=N1,–,–,Active,inactive,inactive
O=C(O)C[C@H]1CNC(=O)c2cc(Br)c(Br)n21 [LONGAMIDE B],55,45,–,–,–
C[N+]1=CNC[C@]1(C)C[C@@H](NC(=O)c1cc(Br)c[nH]1)C(=O)[O-],–,–,Active,–,–
C[C@]1(C[C@@H](NC(=O)c2cc(Br)c[nH]2)C(=O)O)CNC=N1,–,–,Active,inactive,inactive
C[N+]1=CNC[C@]1(C)C[C@H](NC(=O)c1cc(Br)c[nH]1)C(=O)[O-],–,–,Active,–,–

# — ChEMBL document CHEMBL1159197, “Novel bromopyrrole alkaloids from the sponge Agelas dispar” (1998)
